Like-named read-outs stand apart in the source and are kept apart here.
What was measured:
[1] = test system: in vitro BBB model (co-culture of bovine brain capillary endothelial cells and rat glial cells); experiment: In vitro BBB co-culture model, Cu,br/Cu,pl ratio; conditions: for In vitro Cu,br/Cu,pl Mean 1 h: 2 µM in luminal compartment, abluminal/luminal concentration at 1 h; for In vitro Cu,br/Cu,pl Mean steady-state: steady-state ratio computed from 1 h data with the blue-norna steady-state calculator
Experimental: Figure 1 Schematic diagram of the experimental protocol. After 12 days of coculture in cell culture medium, both compartments of the in vitro BBB model consisting of a coculture of brain capillary endothlial cells and rat primary glial cells were filled with Hepes-buffered Ringer’s solution and the compounds dissolved at 2 µM were added in the luminal compartment (i.e donor). The presence of glial cells in the abluminal compartment was used to reproduce the non specific binding to brain tisssue within the brain prenchyma in vivo. After 1 hour, aliquots were taken from both compartments. In vitro Cu,br/Cu,pl at 1 h were calculated by dividing the concentration in the abluminal compartment (∼Cu,br) by the concentration in the luminal compartment (∼Cu,pl) at 1 h. The experimental data at 1 h were computed using the blue-norna steady-state calculator to generate the in vitro steady-state Cu,br/Cu,pl.
One hour after the addition of compounds dissolved at 2 µM in the luminal (i.e upper) compartment, aliquots were taken from both compartments previously filled with Hepes-buffered Ringer’s solution at the beginning of the experiment. […] The concentrations in both compartments of the in vitro assay after 1 h were computed using […] blue-norna.com to generate the in vitro steady-state Cu,br/Cu,pl.
The method of Dehouck et al. was used with minor modifications (Fig. 1). Bovine brain endothelial cells isolated from capillary fragments were cocultured with primary mixed glial cells from newborn Sprague–Dawley rats. The glial cells were isolated according to the method of Booher and Sensenbrenner and cultured for 3 weeks, plated on the bottom of cell culture clusters containing six wells each. The endothelial cells were seeded onto collagen-coated polycarbonate cell culture inserts (4.7 cm^2) (Corning Incorp. NY, USA), which were placed in the wells containing glial cells. The medium used for the coculture was Dulbecco’s modified Eagle’s medium supplemented with 10% calf serum, 10% horse serum, 2 mmol/L glutamine, 50 mg/L gentamicin and 1 µg/L basic fibroblast growth factor (Sigma). The medium was changed every second day. Experiments were usually initiated after 12 days of co-culture.
To monitor the integrity of the endothelial cell monolayer, the marker molecule [^14C] sucrose was added to the solution at a concentration of 0.05 µCi/ml. At the start of the transport experiments, buffered Ringer’s solution (pH = 7.4) was added to wells with glial cells. Inserts with brain endothelial cells were placed in these wells and drug solutions at 2 µM were added to the donor compartment. The plates were incubated for 1 h in a polymix shaker at 37°C with a low shaking velocity. Aliquots were taken from the donor compartment in the beginning and at the end of the experiments. The receiver compartments were sampled at the end of the experiments.
The amount of radiotracer in the abluminal compartment was measured in a liquid scintillation analyser (Packard Instrument Company, Meriden, USA). […] The concentrations of the test compound in all samples were analysed by MS/MS.
The mean free brain/plasma ratios were calculated from three individual experiments. One hour ratios were calculated by dividing the drug concentration in the receiver compartment by the free drug concentration in the donor compartment after 1 h. The experimental data at one hour (i.e concentration in both compartment at the beginning of the experiment and after 1 h) were computed using the blue-norna® steady-state calculator (www.blue-norna.com) to predict the in vivo steady-state Cu,br/Cu,pl ratios. For further details on this calculation method see file S1.
The in vivo steady-state Cu,br/Cu,pl were predicted from the in vitro experimental data collected after one hour according to the following equation: […]
Cdonor, t and Creceiver, t are the concentration of drug in the donor and receiver chambers at time t.

[2] = Fraction unbound brain (fu,br), brain homogenate equilibrium dialysis
Experimental: The degree of brain binding was assessed by equilibrium dialysis. Brain homogenate (10%) was spiked with test compound at 1 µM in triplicate. […] The plate was then placed in a shaker/incubator to equilibrate for 18 hrs at 37°C. […] After the addition of 50 µl of buffer to the brain homogenate samples, 150 µl of acetonitrile was added to each sample. Finally, 50 µl of water was added to all buffer and brain homogenate samples. The plates were centrifuged and the supernatant analyzed by LC-MS/MS.

[3] = Fraction unbound brain (fu,br), brain slice method
Experimental: Rats (male Sprague-Dawley) were decapitated under isoflurane anesthesia and the brains were removed carefully and immersed in ice-cold oxygenated physiological buffer at pH7.4. A 6 mm coronal section was cut with a razor and mounted with cyanoacrylate glue onto the tray of the microslicer (DTK-Zero 1 Microslicer, Dosak) after which six to eight 300 µm coronal slices from striatal areas were prepared. […] The compounds were dissolved at 1 µM in the buffer and the solution was incubated with the slice for 5 h.
After 5 h, the brain slices were weighed and homogenized in 9 volumes (w/v) of ECF buffer with a sonicator (SONICS VCX 500 and VCX 130). The slice homogenates in ECF buffer were stored at −20°C prior to analysis. The concentrations of the test compound in the brain slice homogenate and in the ECF buffer was determined by LC-MS/MS.
The unbound volume of distribution Vu,brain, or free fraction fu,brain was calculated according to the following equations: [drawing 1] [drawing 2] where Cslice, CECF and V0 are amount of drug in the slice, the drug concentration in the ECF (representing the drug concentration in the brain ECF, i.e. the free concentration), and the water adhesion of the brain slice. V0 has been estimated using ^14C -inulin in a separate experiment in which brain slices were incubated for 1, 2, and 4 min. V0 was obtained from brain slice uptake – inulin time profile (apparent zero-time intercept).

[4] = In vivo brain exposure (Cu,br/Cu,pl) under steady-state like conditions after intravenous administration; conditions: rat, i.v. bolus plus infusion; for In vivo Cu,br/Cu,pl (homog.) Mean steady-state: Cbr/Cpl x fubr/fupl with fu,br from brain homogenate; for In vivo Cu,br/Cu,pl (slice) Mean steady-state: Cbr/Cpl x fubr/fupl with fu,br from brain slice
Experimental: Rat plasma was obtained from Sprague-Dawley rats in-house. Plasma from three individuals was pooled and mixed with up to 4 compounds with a concentration of 10 µM each (in 0.1% DMSO). A 48-well dialysis apparatus (AstraZeneca, Mölndal) was used to determine the plasma free fraction. The dialysis membrane (AstraZeneca, Mölndal) was conditioned in Milli/Q water before use. […] The samples were incubated on an orbital shaker (4 mm in diameter and 100 rpm) at 37 °C for 18 hrs. […] After plasma protein precipitation by the addition of 150 µl of acetonitrile to each plasma sample in order to precipitate plasma proteins. The plates were centrifuged and the supernatant analyzed by LC-MS/MS. The fu in plasma was calculated from the ratio of the MS-area of the compound in the buffer to the MS-area of the compound in the plasma.
The CNS exposure of 92 compounds (i.e 30 drugs and 62 proprietary compounds) was assessed under steady-state like conditions after intravenous administration. The time to approach steady-state (taken as at least 3.5 half-lives) was determined from prior studies of the pharmacokinetics of individual compounds after intravenous administration. The rats were put in restraint cages and cannulated via the tail vein. On the day of the experiment, the rats received a bolus injection followed by infusion. The infusion rate and infusion time were determined separately for each compound. The test formulation was administered using an infusion pump (CMA/100 or Univentor 400 microinjection pump).
Blood samples (400 µL) were collected by rapidly anaesthetizing the rats and keeping them under anesthesia with isofluran. Blood was collected either through heart puncture, from the tail vein or the orbital venous plexus and put into EDTA tubes, which were immediately placed on ice and centrifuged within 30 min at 4°C for 5 min at 2000 g to obtain plasma. The plasma was transferred by glass or plastic pipettes to 1.5 ml MTP system topaz vials and immediately frozen to −70°C or lower and stored at −20°C until assayed.
After blood collection, the whole brain was rapidly removed from the animal skull and weighed after which it was frozen and stored at −20°C. Before analysis with LC-MS/MS, the brain samples were sonicated (SONICS Vibracell VCX 130) in Ringer solution (2-fold the brain weight; e.g. 1 gram brain plus 2 mL Ringer).
The unbound brain exposure was assessed as Cu,br/Cu,pl, which is the free brain-free plasma concentration ratio. The Cu,br/Cu,pl ratios were obtained from total brain plasma ratios (Ctot,br/Ctot,pl) by using in vitro determined fu,br and fu,pl values according to: [drawing 4]
Brain concentrations were corrected for residual blood volume using 13 µl/g based on the vascular space of the marker [14C]-sucrose.

SMILES	In vitro Cu,br/Cu,pl Mean 1 h [1]	In vitro Cu,br/Cu,pl Mean steady-state [1]	fubrain (homog.) Mean ([2]; brain homogenate (10%), 1 µM, equilibrium dialysis 18 hrs at 37°C)	fubrain (slice) Mean ([3]; rat brain slices 300 µm, 1 µM, 5 h incubation)	In vivo Cu,br/Cu,pl (homog.) Mean steady-state [4]	In vivo Cu,br/Cu,pl (slice) Mean steady-state [4]	fubrain (homog.) Mean [2]	fubrain (slice) Mean [3]
CC(NC(C)(C)C)C(=O)c1cccc(Cl)c1 (stereo not drawn) [Buproprion]	0.24	0.51	0.1710	0.1600	1.07	1.00	–	–
Fc1ccc([C@@H]2CCNC[C@H]2COc2ccc3c(c2)OCO3)cc1 [Paroxetin]	0.08	0.79	–	–	0.86	0.53	0.0039	0.0024

From article PMC3849192, “A Simple Method for Assessing Free Brain/Free Plasma Ratios Using an In Vitro Model of the Blood Brain Barrier” (PLoS ONE, 2013)
